Patent US11739098B2 (BRISTOL-MYERS SQUIBB COMPANY, priority 2017, dated 2023)

Columns and labels:
Type in all cases: cell-based
human TLR8 = target: T1, human TLR8 (Homo sapiens, UniProt Q9NR97); test: TLR8 inhibition reporter assay (HEK-Blue cells, SEAP reporter, R848 stimulation); conditions: HEK-Blue cells overexpressing human TLR8, SEAP reporter, R848 15.9 μM
T1 construct: host or cells: HEK-Blue cells (HEK293-derived reporter line)
T1 sequence (Q9NR97 27-1041): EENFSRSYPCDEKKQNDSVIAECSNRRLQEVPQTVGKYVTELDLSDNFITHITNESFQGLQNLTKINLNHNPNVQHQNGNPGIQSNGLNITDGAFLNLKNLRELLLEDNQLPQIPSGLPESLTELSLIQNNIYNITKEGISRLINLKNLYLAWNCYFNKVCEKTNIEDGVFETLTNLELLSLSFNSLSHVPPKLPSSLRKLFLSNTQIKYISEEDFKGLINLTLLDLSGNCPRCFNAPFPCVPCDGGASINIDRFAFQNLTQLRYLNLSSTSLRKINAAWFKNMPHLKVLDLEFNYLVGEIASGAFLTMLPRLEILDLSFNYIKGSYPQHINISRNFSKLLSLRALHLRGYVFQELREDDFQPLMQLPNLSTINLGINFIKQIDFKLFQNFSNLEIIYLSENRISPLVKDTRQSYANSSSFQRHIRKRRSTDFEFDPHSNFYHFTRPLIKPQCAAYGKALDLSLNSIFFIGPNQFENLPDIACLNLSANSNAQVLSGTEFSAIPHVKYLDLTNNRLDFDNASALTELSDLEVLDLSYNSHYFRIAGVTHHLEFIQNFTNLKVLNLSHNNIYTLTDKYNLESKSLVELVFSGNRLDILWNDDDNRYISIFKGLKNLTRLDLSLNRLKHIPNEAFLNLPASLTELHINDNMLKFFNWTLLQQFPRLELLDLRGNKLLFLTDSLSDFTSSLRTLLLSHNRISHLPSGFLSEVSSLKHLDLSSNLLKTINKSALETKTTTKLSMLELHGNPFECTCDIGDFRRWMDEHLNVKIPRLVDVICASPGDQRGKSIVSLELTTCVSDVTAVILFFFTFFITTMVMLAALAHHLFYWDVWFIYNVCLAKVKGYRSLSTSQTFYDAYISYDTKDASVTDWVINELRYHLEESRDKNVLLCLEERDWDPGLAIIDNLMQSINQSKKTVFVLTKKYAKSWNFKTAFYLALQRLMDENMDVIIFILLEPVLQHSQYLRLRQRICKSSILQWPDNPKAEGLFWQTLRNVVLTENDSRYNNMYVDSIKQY
How it was run: (§1)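 Cells seeded per well (15000 TLR7, 20,000 TLR8, 25,000 TLR9); compound added over 0.05 nM–50 μM for 30 min at room temperature; agonist added (TLR7 gardiquimod 7.5 μM, TLR8 R848 15.9 μM, TLR9 ODN2006 5 nM); 22 h at 37 °C; SEAP measured; percent inhibition calculated.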

human TLR7 = target: T2, human TLR7 (Homo sapiens, UniProt Q9NYK1); test: TLR7 inhibition reporter assay (HEK-Blue cells, SEAP reporter, gardiquimod stimulation); conditions: HEK-Blue cells overexpressing human TLR7, SEAP reporter, gardiquimod 7.5 μM
T2 construct: host or cells: HEK-Blue cells (HEK293-derived reporter line)
T2 sequence (Q9NYK1 27-1049): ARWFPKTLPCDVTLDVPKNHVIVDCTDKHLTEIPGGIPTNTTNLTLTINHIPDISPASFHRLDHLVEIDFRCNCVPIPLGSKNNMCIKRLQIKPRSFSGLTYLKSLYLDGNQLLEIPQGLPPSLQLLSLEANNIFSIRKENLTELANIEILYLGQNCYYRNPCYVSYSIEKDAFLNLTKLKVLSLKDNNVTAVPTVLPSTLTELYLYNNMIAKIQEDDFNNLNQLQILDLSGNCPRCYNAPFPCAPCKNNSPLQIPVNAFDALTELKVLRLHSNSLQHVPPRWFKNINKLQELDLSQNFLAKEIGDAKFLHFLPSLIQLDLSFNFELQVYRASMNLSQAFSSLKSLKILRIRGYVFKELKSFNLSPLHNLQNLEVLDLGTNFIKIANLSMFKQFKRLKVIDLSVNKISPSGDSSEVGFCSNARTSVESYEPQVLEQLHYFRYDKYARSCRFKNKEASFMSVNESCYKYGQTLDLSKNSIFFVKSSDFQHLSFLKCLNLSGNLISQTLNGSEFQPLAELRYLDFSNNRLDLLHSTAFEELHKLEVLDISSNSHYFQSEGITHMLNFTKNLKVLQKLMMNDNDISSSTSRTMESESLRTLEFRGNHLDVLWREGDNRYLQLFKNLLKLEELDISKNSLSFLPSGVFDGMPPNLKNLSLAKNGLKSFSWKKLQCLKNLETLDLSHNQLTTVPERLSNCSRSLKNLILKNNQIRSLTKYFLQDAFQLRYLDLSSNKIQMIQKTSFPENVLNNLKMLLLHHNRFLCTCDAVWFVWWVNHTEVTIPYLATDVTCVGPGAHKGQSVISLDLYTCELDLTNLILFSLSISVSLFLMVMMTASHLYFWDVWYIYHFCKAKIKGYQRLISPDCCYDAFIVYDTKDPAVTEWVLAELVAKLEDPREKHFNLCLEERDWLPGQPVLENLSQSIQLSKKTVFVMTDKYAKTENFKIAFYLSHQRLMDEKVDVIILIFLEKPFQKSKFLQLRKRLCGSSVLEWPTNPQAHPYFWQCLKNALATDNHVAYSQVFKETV
How it was run: as §1

human TLR9 = target: T3, human TLR9 (Homo sapiens, UniProt Q9NR96); test: TLR9 inhibition reporter assay (HEK-Blue cells, SEAP reporter, ODN2006 stimulation); conditions: HEK-Blue cells overexpressing human TLR9, SEAP reporter, ODN2006 5 nM
T3 construct: host or cells: HEK-Blue cells (HEK293-derived reporter line)
T3 sequence (Q9NR96 26-1032): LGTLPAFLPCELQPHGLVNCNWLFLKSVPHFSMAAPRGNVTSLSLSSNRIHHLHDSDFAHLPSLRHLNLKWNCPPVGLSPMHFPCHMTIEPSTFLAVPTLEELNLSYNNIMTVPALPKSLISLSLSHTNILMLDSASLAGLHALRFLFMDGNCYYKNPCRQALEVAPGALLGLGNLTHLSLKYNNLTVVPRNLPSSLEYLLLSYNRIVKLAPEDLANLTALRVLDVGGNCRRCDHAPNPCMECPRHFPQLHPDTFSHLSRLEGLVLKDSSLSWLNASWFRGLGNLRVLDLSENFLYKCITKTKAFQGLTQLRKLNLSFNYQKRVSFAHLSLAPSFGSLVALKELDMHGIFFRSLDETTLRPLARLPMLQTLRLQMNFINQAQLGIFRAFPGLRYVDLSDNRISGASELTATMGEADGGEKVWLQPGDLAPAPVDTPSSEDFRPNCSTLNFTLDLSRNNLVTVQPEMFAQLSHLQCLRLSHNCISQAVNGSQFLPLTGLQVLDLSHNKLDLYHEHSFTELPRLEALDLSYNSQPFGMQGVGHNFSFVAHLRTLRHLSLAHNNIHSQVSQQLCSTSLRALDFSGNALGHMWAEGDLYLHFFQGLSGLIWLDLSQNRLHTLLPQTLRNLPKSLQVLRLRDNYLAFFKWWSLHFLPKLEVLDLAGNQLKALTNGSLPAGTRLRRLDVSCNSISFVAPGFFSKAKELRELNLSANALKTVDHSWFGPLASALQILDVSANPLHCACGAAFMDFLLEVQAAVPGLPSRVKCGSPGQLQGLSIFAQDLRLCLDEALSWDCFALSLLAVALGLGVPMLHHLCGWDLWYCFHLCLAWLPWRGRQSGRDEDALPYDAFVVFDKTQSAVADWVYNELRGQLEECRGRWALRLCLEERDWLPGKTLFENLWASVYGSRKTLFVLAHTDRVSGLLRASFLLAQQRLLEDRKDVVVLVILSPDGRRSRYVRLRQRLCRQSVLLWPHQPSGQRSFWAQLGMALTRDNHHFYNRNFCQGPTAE
How it was run: as §1

Row | IC50 (human TLR8) [nM] | IC50 (human TLR7) [nM] | IC50 (human TLR9) [nM] | SMILES
1 | < 100 | < 100 | 100 to 1000 | Cc1nc[nH]c1CN1CCC(c2ccc3[nH]c(-c4ccnc5[nH]cnc45)c(C(C)C)c3c2)CC1 [Example 861, 7-(3-isopropyl-5-(1-((4-methyl-1H-imidazol-5-yl)methyl)piperidin-4-yl)-1H-indol-2-yl)-3H-imidazo[4,5-b]pyridine]
2 | < 100 | < 100 | 1000 to 50000 | CC(=O)N[C@H]1CCN(CC(=O)N2CCC(c3ccc4[nH]c(-c5ccnc6[nH]ncc56)c(C(C)C)c4c3)CC2)C1 [Example 581, (S)—N-(1-(2-(4-(3-isopropyl-2-(1H-pyrazolo[3,4-b]pyridin-4-yl)-1H-indol-5-yl)piperidin-1-yl)-2-oxoethyl)pyrrolidin-3-yl)acetamide]
3 | < 100 | < 100 | < 100 | CC(C)c1c(-c2ccnc3[nH]ncc23)[nH]c2cc(F)c(C3CCN(C4CCN(C(C)C)CC4)CC3)cc12 [Example 830, 4-(6-fluoro-3-isopropyl-5-(1′-isopropyl-[1,4′-bipiperidin]-4-yl)-1H-indol-2-yl)-1H-pyrazolo[3,4-b]pyridine]
4 | > 3130 | > 3130 | 1000 to 50000 | CNC(=O)CN1CCC(c2ccc3[nH]c(-c4cc(CC(C)C)n5nc(C)cc5c4)c(C(C)C)c3c2)CC1 [Example 392, 2-(4-(2-(7-isobutyl-2-methylpyrazolo[1,5-a]pyridin-5-yl)-3-isopropyl-1H-indol-5-yl)piperidin-1-yl)-N-methylacetamide]
5 | < 100 | < 100 | 1000 to 50000 | Cc1cc(-c2[nH]c3ccc(C4CCN(C(=O)CN5CCCCC5)CC4)cc3c2C(C)C)cn2nnnc12 [Example 472, 1-(4-(3-isopropyl-2-(8-methyltetrazolo[1,5-a]pyridin-6-yl)-1H-indol-5-yl)piperidin-1-yl)-2-(piperidin-1-yl)ethan-1-one]
6 | < 100 | < 100 | 1000 to 50000 | CC(C)c1c(-c2ccc3ncnn3n2)[nH]c2ccc(C3CCN(CC(=O)N(C)C)CC3)cc12 [Example 278, 2-(4-(2-([1,2,4]triazolo[1,5-b]pyridazin-6-yl)-3-isopropyl-1H-indol-5-yl)piperidin-1-yl)-N,N-dimethylacetamide]
7 | < 100 | < 100 | 1000 to 50000 | CC(C)c1c(-c2nc3ccnn3cc2F)[nH]c2ccc(C3CCNCC3)cc12 [Example 147, 6-fluoro-5-(3-isopropyl-5-(piperidin-4-yl)-1H-indol-2-yl)pyrazolo[1,5-a]pyrimidine]
8 | < 100 | < 100 | 100 to 1000 | CC(C)c1c(-c2cc(N)c3nccn3c2)[nH]c2ccc(C3CCNCC3)cc12 [Example 117, 6-(3-isopropyl-5-(piperidin-4-yl)-1H-indol-2-yl)imidazo[1,2-a]pyridin-8-amine]
9 | < 100 | < 100 | 1000 to 50000 | COc1c(C)c(-c2[nH]c3ccc(C4CCN(C(=O)CN(C)C)CC4)cc3c2C(C)C)nn2ncnc12 [Example 451, 2-(dimethylamino)-1-(4-(3-isopropyl-2-(8-methoxy-7-methyl-[1,2,4]triazolo[1,5-b]pyridazin-6-yl)-1H-indol-5-yl)piperidin-1-yl)ethan-1-one]
10 | 100 to 1000 | 100 to 1000 | 1000 to 50000 | CCc1c(-c2ccnc3cnn(C)c23)[nH]c2ccc(C3CCNCC3)cc12 [Example 41, 7-(3-ethyl-5-(piperidin-4-yl)-1H-indol-2-yl)-1-methyl-1H-pyrazolo[4,3-b]pyridine]
11 | < 100 | < 100 | 1000 to 50000 | Cc1cc(-c2[nH]c3ccc(C4CCN(C5COC5)CC4)cc3c2C(C)C)cc2ccnn12 [Example 720, 5-(3-isopropyl-5-(1-(oxetan-3-yl)piperidin-4-yl)-1H-indol-2-yl)-7-methylpyrazolo[1,5-a]pyridine]
12 | < 100 | 100 to 1000 | 1000 to 50000 | CC(C)c1c(-c2ccnc3cccnc23)[nH]c2ccc(C3CCNCC3)cc12 [Example 22, 4-(3-isopropyl-5-(piperidin-4-yl)-1H-indol-2-yl)-1,5-naphthyridine]
13 | < 100 | < 100 | 100 to 1000 | CC(C)c1c(-c2ccnc3cn[nH]c23)[nH]c2ccc(C3CCNCC3)cc12 [Example 54, 7-(3-isopropyl-5-(piperidin-4-yl)-1H-indol-2-yl)-1H-pyrazolo[4,3-b]pyridine]
14 | < 100 | < 100 | 1000 to 50000 | Cc1c(-c2[nH]c3ccc(C4CCN(C5COC5)CC4)cc3c2C(C)C)nn2ncnc2c1C [Example 730, 6-(3-isopropyl-5-(1-(oxetan-3-yl)piperidin-4-yl)-1H-indol-2-yl)-7,8-dimethyl-[1,2,4]triazolo[1,5-b]pyridazine]
